Four compounds from patent publication US20250381269A1, “BISPECIFIC ANTIBODY BINDING EGFR AND B7-H3” (FORTVITA BIOLOGICS (SINGAPORE) PTE. LTD., priority 2022, published 2025) can be followed below.

One data set relates to H1703. The data set can be described thus: Proliferation inhibition experiment, H1703 (NSCLC). It counts as cell-based. As to conditions: NCI-H1703; TKI highest concentration 1000 nM. As to the method: (§1) • (1) NSCLC: plated at 1500-2500 cells/100 μL in a 96-well low-adsorption plate (Corning, CLS7007-24EA) for 3D cell culture, in which the following cell lines and specific amounts were used: • NSCLC: 2000 cells/100 μL/well • NCI-H292: Cell Bank of the Chinese Academy of Sciences, SCSP-582 • NCI-H322: Cobioer, CBP60134 • NCI-H1650: ATCC, CRL-5883 • NCI-H1975: ATCC, CRL-5908 • SK-MES-1: CoBioer, CBP60152 • NCI-H1703: ATCC, HTB-43 • PC9+hB7H3: constructed as described above • CRC and HNSCC: plated at 1500-2000 cells/100 μL in a 96-well white-bottom plate (NUNC, 136101) for 2D cell culture, in which the following cell lines and specific amounts were used: • CRC: 1500 cells/100 μL/well • CCK-81: CoBioer, CBP60581 • HT-55: CoBioer, CBP60012 • H508: CoBioer, CBP60795 • LS180: CoBioer, CBP60034 • HNSCC: 1500 cells/100 μL/well • TE-1: CoBioer, CBP60655 • Colo680: CoBioer, CBP60452. (2) The antibody molecules prepared in advance by dilution were added to the corresponding cell well plate, mixed well, and cultured in an incubator at 37° C. with 5% CO2 for 5 days. • (3) After 5 days of continuous culture for proliferation inhibition assay, the Cell-Titer reagent (Promega, G7572) prepared in advance was added to cell wells, the plate was left to stand at room temperature for 15-25 min in the dark, and then CRC and HNSCC cells were directly detected by a multimode microplate reader (Molecular Devices, Spectra MAXi3). • (4) NSCLC: Cell-Titer and the cell mixture were transferred to a 96-well white-bottom plate (NUNC, 136101) and detected by a multimode microplate reader (Molecular Devices, Spectra MAXi3).

The test system of another data set is SK-MES-1. The data set can be described thus: Proliferation inhibition experiment, SK-MES-1 (NSCLC). It counts as cell-based. To be noted: TKI highest concentration 1000 nM. As to the method:
as §1

Data set [1] deals with NCI-H358 tumor-bearing mice. Kind of data set: Anti-tumor efficacy in NCI-H358 tumor-bearing mice, combination with AMG510. It counts as in vivo, NOG mice. As to the method: SPF female NOG mice (purchased from Beijing Vital River Laboratory Animal Technology Co., Ltd.) with certificate No. 1100112211001153625 were used in the experiment.
NCI-H358 cells were routinely subcultured for the subsequent in-vivo experiment. The cells were collected by centrifugation. Then the NCI-H358 cells were resuspended in an equal-proportion mixture of PBS (1×) and Matrigel Matrix (Corning) to prepare a cell suspension with a cell concentration of 25×10^6 cells/mL. On day 0, 0.2 mL of the cell suspension was taken and subcutaneously inoculated to the right abdominal area of NOG mice to establish NCI-H358 tumor-bearing mouse models.
Six days after the tumor cell inoculation, the tumor volume in each mouse was measured. The mice were grouped (with 7 mice in each group).
Administration was performed on days 6, 9, 12, and 15 after the inoculation of NCI-H358 cells. Mice were monitored for tumor volume and body weight twice a week. […] Mice were monitored for tumor volume twice a week, and were monitored for body weight every day during the administration, and twice a week after the end of administration. […] On day 33 after the inoculation, the relative tumor growth inhibition (TG1%) was calculated by the following formula: TG1%=100%×(control group tumor volume−treatment group tumor volume)/(control group tumor volume−control group tumor volume before administration).
Tumor volume measurement: The maximum length of major axis (L) and maximum length of minor axis (W) of tumors were measured with a vernier caliper, and tumor volume was calculated by the following formula: V=L×W^2/2. The mice were weighed using an electronic balance.

Data set [2] relates to LS180 (EGFR^R521K, KRAS^G12D) CRC tumor cell line. Kind of data set: Proliferation inhibition experiment, LS180, combination with MRTX1133. It is filed as cell-based. As to conditions: 15.62 nM MRTX1133, read as without bsAb (starting value of the increase). As to the method:
• (1) NSCLC (H358) (Cobioer, CBP60136) and CRC (LS180) (Cobioer, CBP60034): plated at 1500-2500 cells/100 μL in a 96-well low-adsorption plate (Corning, CLS7007-24EA) for 3D cell culture. • (2) The antibody molecules and small molecule inhibitors prepared in advance by dilution were added to the corresponding cell well plate, mixed well, and cultured at 37° C. with 5% CO2 for 5 days. • (3) After 5 days of continuous culture for proliferation inhibition assay, the Cell-Titer reagent (Promega, G7572) prepared in advance was added to cell wells, and the plate was left to stand at room temperature for 15-25 min in the dark. • (4) Cell-Titer and the above cell mixture were transferred to a 96-well white-bottom plate (NUNC, 136101) and detected by a multimode microplate reader (Molecular Devices, Spectra MAXi3).

Structures are written as SMILES.

Regarding `C#Cc1cccc(Nc2ncnc3cc(OCCOC)c(OCCOC)cc23)c1` [erlotinib], the “sensitivity of the cell line to EGFR-TKI, in words” value in the data set on H1703 is “resistant and not sensitive”; in the data set with SK-MES-1 it was “resistant and not sensitive”.
In the case of `C=CC(=O)Nc1cc(Nc2nccc(-c3cn(C)c4ccccc34)n2)c(OC)cc1N(C)CCN(C)C` [osimertinib], the “sensitivity of the cell line to EGFR-TKI, in words” value in the data set with H1703 is “resistant and not sensitive”; with SK-MES-1, “resistant and not sensitive”.
As to `C=CC(=O)N1CCN(c2nc(=O)n(-c3c(C)ccnc3C(C)C)c3nc(-c4c(O)cccc4F)c(F)cc23)[C@@H](C)C1` [AMG510, sotorasib], the “Tumor volume (mm^3)” value in data set [1] (NCI-H358, NOG mice, antibodies 10 mg/kg i.p. Q3-4D x4 (h-IgG 20 mg/kg), AMG510 10 mg/kg intragastric QD x14, day 33) worked out at 180 mm^3. Moreover, the “Tumor growth inhibition (%)” value in data set [1] (NCI-H358, NOG mice, antibodies 10 mg/kg i.p. Q3-4D x4, AMG510 10 mg/kg intragastric QD x14, day 33, vs h-IgG 20 mg/kg) is listed as 89%. Further, the “body weight of mice” value in data set [1] (NCI-H358 tumor-bearing NOG mice, during administration and on day 33) is given as “caused a gradual decrease in the body weight of mice”.
In the case of `C#Cc1c(F)ccc2cc(O)cc(-c3ncc4c(N5CC6CCC(C5)N6)nc(OC[C@@]56CCCN5C[C@H](F)C6)nc4c3F)c12` [MRTX1133], the anti-LS180 tumor efficacy in data set [2] was found to be 36.45%.
